Tests used:
[1] = tested on: primary mouse bone marrow cells; assay: Osteoclastogenesis in primary mouse bone marrow cells; assay type: cell-based; conditions: 10 or 20 μM; 3 days
cleaved caspase 3 [2] = assay: Western blot of cleaved caspase 3, 4T1 cells; assay type: cell-based, mouse; conditions: absence and presence of 10% serum, 10-50 μM salubrinal, 5-50 μM guanabenz
Method: (§1) 4T1 mouse mammary tumor cells and MDA-MB-231 human breast cancer cells were cultured in DMEM containing 10% fetal bovine serum and antibiotics (50 units/ml penicillin, and 50 μg/ml streptomycin; Life Technologies, Grand Island, N.Y., USA). Cells were maintained at 37° C. and 5% CO2 in a humidified incubator. Responses to administration of 10-50 μM salubrinal or 5-50 μM guanabenz acetate (Tocris Bioscience, Ellisville, Mo., USA) were evaluated using assays for MTT, adhesion, invasion, and motility. Cells were lysed in a radioimmunoprecipitation assay (RIPA) buffer containing protease inhibitors (Santa Cruz Biotechnology, Santa Cruz, Calif., USA) and phosphatase inhibitors (Calbiochem, Billerica, Mass., USA). Isolated proteins were fractionated using 10-15% SDS gels and electro-transferred to Immobilon-P membranes (Millipore, Billerica, Mass., USA). The membrane was incubated for 1 h with primary antibodies followed by 45 min incubation with goat anti-rabbit or anti-mouse IgG conjugated with horseradish peroxidase (Cell Signaling, Danvers, Mass., USA). […] Protein levels were assayed using a SuperSignal west femto maximum sensitivity substrate (Thermo Scientific, Waltham, Mass., USA), and signal intensities were quantified with a luminescent image analyzer (LAS-3000, Fuji Film, Tokyo, Japan).

[3] = tested on: 4T1 mouse mammary tumor cells; assay: MTT assay, 4T1 cells; assay type: cell-based
Method: (§2) 4T1 mouse mammary tumor cells and MDA-MB-231 human breast cancer cells were cultured in DMEM containing 10% fetal bovine serum and antibiotics (50 units/ml penicillin, and 50 μg/ml streptomycin; Life Technologies, Grand Island, N.Y., USA). Cells were maintained at 37° C. and 5% CO2 in a humidified incubator. Responses to administration of 10-50 μM salubrinal or 5-50 μM guanabenz acetate (Tocris Bioscience, Ellisville, Mo., USA) were evaluated using assays for MTT, adhesion, invasion, and motility. Cells (5×10^2/well) were seeded in 96-well plates, and the reduction of MTT to formazan was evaluated by measuring the absorbance at 570 nm with a plate reader (EL800, BioTek, Winooski, Vt., USA).

4T1 cells [4] = assay: Two-dimensional wound healing scratch motility assay, 4T1 cells; assay type: cell-based, mouse; conditions: for cell motility (scratch-wound assay): 4T1 cells, 20 or 50 μM, 24 h
Method: (§3) 4T1 mouse mammary tumor cells and MDA-MB-231 human breast cancer cells were cultured in DMEM containing 10% fetal bovine serum and antibiotics (50 units/ml penicillin, and 50 μg/ml streptomycin; Life Technologies, Grand Island, N.Y., USA). Cells were maintained at 37° C. and 5% CO2 in a humidified incubator. Responses to administration of 10-50 μM salubrinal or 5-50 μM guanabenz acetate (Tocris Bioscience, Ellisville, Mo., USA) were evaluated using assays for MTT, adhesion, invasion, and motility. To evaluate 2-dimensional motility, a wound healing scratch motility assay was carried out. In brief, cells were plated in 12-well plates or 6-cm dishes (Falcon) and on the next day, scratching was performed using a plastic tip. The areas newly occupied with cells in the scratched zone were determined every 3 h up to 24 h using images obtained by a microscope, which were scanned with Adobe Photoshop (CS2, Adobe Systems, San Jose, Calif., USA) and quantified with Image J.

4T1 cells [5] = assay: In vitro invasion assay (Boyden chamber, Matrigel), 4T1 cells; assay type: cell-based, mouse; conditions: for number of cells invaded through the filter coated with Matrigel: 4T1 cells, 24 h, regardless of serum, 10-50 μM salubrinal, 5-50 μM guanabenz
Method: (§4) 4T1 mouse mammary tumor cells and MDA-MB-231 human breast cancer cells were cultured in DMEM containing 10% fetal bovine serum and antibiotics (50 units/ml penicillin, and 50 μg/ml streptomycin; Life Technologies, Grand Island, N.Y., USA). Cells were maintained at 37° C. and 5% CO2 in a humidified incubator. Responses to administration of 10-50 μM salubrinal or 5-50 μM guanabenz acetate (Tocris Bioscience, Ellisville, Mo., USA) were evaluated using assays for MTT, adhesion, invasion, and motility. An invasion assay was performed with a Boyden chamber with minor modifications of the usual procedure. In brief, Matrigel (BD Biosciences) was diluted with ice-cold PBS (100 μg/ml). Six-hundred μl of Matrigel was added to each filter (polyethylene terephthalate membrane, 8-μm pore size, 23.1 mm in diameter, Falcon) and left to polymerize overnight. Prior to assembling the chamber unit, the lower chamber (6-well plate, Falcon) was filled with culture medium consisting of salubrinal or guanabenz. Cells (1˜4×10^5/well) were added to the culture medium with salubrinal or guanabenz in the upper chamber and incubated for 24 h. The cells on the filter surface were stained with Giemsa (Sigma-Aldrich) and the number of cells was counted under the microscope.

4T1 cells [6] = assay: Cell adhesion assay, 4T1 cells; assay type: cell-based, mouse; conditions: surfaces coated with poly-L-lysine, type I collagen, fibronectin, laminin; 30 min and 3 h
Method: 4T1 mouse mammary tumor cells and MDA-MB-231 human breast cancer cells were cultured in DMEM containing 10% fetal bovine serum and antibiotics (50 units/ml penicillin, and 50 μg/ml streptomycin; Life Technologies, Grand Island, N.Y., USA). Cells were maintained at 37° C. and 5% CO2 in a humidified incubator. Responses to administration of 10-50 μM salubrinal or 5-50 μM guanabenz acetate (Tocris Bioscience, Ellisville, Mo., USA) were evaluated using assays for MTT, adhesion, invasion, and motility. Ninety-six well plates were coated with poly-L-lysine, fibronectin, laminin (Sigma-Aldrich, St. Louis, Mo., USA), or type I collagen (BD Biosciences, Bedford, Mass., USA) for 2 h. The plates were then incubated with non-fat dry milk, followed by washing with PBS and serum-free culture medium. Cells (1×10^4/well) were added on the plate, and after 30 min and 3 h the attached cells were stained with 0.04% crystal violet (Sigma-Aldrich) for 10 min at room temperature. The wells were washed with PBS, and DMSO was added. Absorbance at 550 nm was measured using the plate reader.

[7] = tested on: NFATc1, TRAP, OSCAR, c-fos, MMP9, and cathepsin K; assay: Relative mRNA abundance in primary mouse bone marrow cells; assay type: cell-based; conditions: 10 μM; 24 h
NFATc1 = NFATc1 protein expression in primary mouse bone marrow cells; assay type: cell-based; conditions: 10 or 20 μM; 2 days
[8] = tested on: MDA-MB-231 human breast cancer cells; assay: Scratch motility assay, MDA-MB-231 cells; assay type: cell-based; conditions: 20 or 50 μM salubrinal, 24 h, 10% serum
Method: as §3

cleaved caspase 3 [9] = assay: Western blot of cleaved caspase 3, MDA-MB-231 cells; assay type: cell-based, human; conditions: 20 or 50 μM salubrinal, absence of serum
Method: as §1

[10] = tested on: 4T1 mouse mammary tumor cells; assay: In vivo tumor growth, BALB/c mice injected with 4T1 cells; conditions: 4T1 cells s.c., 25 μg salubrinal s.c. daily, day 20, mean±S.D., N=18
Method: Experimental procedures were approved by the Indiana University Animal Care and Use Committee and were in compliance with the Guiding Principles in the Care and Use of Animals endorsed by the American Physiological Society. Five mice were housed per cage, and fed with mouse chow and water ad libitum. Thirty-five BALB/c female mice (6 weeks, Harlan Laboratories) were used. Mice received subcutaneous injection of 4T1 mouse mammary tumor cells (10^6 cells in 100 μl PBS) to the abdomen on day 1. Twenty-five μg of salubrinal was administered subcutaneously into the area of cell injection every day, while the control animals received a vehicle. The animals were sacrificed on day 20, and the volume and weight of tumors were determined. The tumor volume was calculated as (long diameter)×(short diameter)^2/2.

[11] = tested on: MDA-MB-231 human breast cancer cells; assay: In vitro invasion assay, MDA-MB-231 cells; assay type: cell-based; conditions: 20 or 50 μM salubrinal, 24 h, absence of serum
Method: as §4

Rac1 GTPase [12] = assay: FRET-based Rac1 activity imaging, 4T1 cells; assay type: cell-based, mouse; conditions: 20 μM salubrinal
Method: (§5) To visualize Rac1 activity in response to salubrinal, FRET imaging was conducted using a cyan fluorescent protein (CFP)-yellow fluorescent protein (YFP) Rac1 biosensor. The filter sets (Semrock) were chosen for CFP excitation at 438±24 nm (center wavelength±bandwidth), CFP emission at 483±32 nm, and YFP emission at 542±27 nm. Time-lapse images were acquired at an interval of 5 min using a fluorescence microscope (Nikon, Tokyo, Japan). The level of Rac1 activity was determined by computing an emission ratio of YFP/CFP for individual cells using NIS-Elements software (Nikon).

[13] = tested on: MDA-MB-231 human breast cancer cells; assay: MTT assay, MDA-MB-231 cells; assay type: cell-based; conditions: 20 or 50 μM salubrinal
Method: as §2

Rac1 GTPase [14] = assay: FRET-based Rac1 activity imaging, MDA-MB-231 cells; assay type: cell-based, human; conditions: 20 μM salubrinal
Method: as §5

SMILES | TRAP-positive multi-nucleated cells [1] | development of osteoclasts [1] | level of cleaved caspase 3 (cleaved caspase 3 [2]) | cell motility (scratch-wound assay) (4T1 cells [4]) | number of cells invaded through the filter coated with Matrigel (4T1 cells [5]) | cell adhesion (absorbance reading, number of adherent cells) (4T1 cells [6]) | mRNA levels of NFATc1, TRAP, OSCAR, c-fos, MMP9, and cathepsin K [7] | NFATc1 protein expression (NFATc1) | also measured
N=C(N)N/N=C/c1c(Cl)cccc1Cl [guanabenz] | Reduction | Reduced development of osteoclasts | elevated | reduced in a dose dependent manner | significantly reduced | did not significantly change | reduced | Suppression | number of live 4T1 cells (MTT) ([3]; 50 μM guanabenz): decreased
O=C(/C=C/c1ccccc1)NC(NC(=S)Nc1cccc2cccnc12)C(Cl)(Cl)Cl (stereo not drawn) [salubrinal] | Reduction | Reduced development of osteoclasts | elevated | reduced in a dose dependent manner | significantly reduced | did not significantly change | reduced | Suppression | cell motility [8]: Reduction in cell motility; cleaved caspase 3 (cleaved caspase 3 [9]): Dose-dependent elevation; number of live 4T1 cells (MTT) ([3]; 10, 20, and 50 μM salubrinal): reduced in a dose dependent manner; tumor volume [10]: 384.5±248.1 mm^3; tumor weight [10]: 0.32 ± 0.24 g; salubrinal-driven reduction in cell motility (4T1 cells [4]; 4T1 cells treated with eIF2α siRNA, 20 or 50 μM salubrinal): also suppressed; cell invasion [11]: Reduction in cell invasion; salubrinal-driven reduction in cell invasion (4T1 cells [5]; 4T1 cells treated with eIF2α siRNA vs NC siRNA, 20 or 50 μM salubrinal): significantly suppressed; cell invasion (4T1 cells [5]; 4T1 control cells treated with NC siRNA, 20 or 50 μM salubrinal): reduced by salubrinal in a dose dependent manner; salubrinal-driven reduction in Rac1 activity (Rac1 GTPase [12]; 4T1 cells transfected with eIF2α siRNA): significantly suppressed; Rac1 activity (emission ratio of YFP/CFP) (Rac1 GTPase [12]; 4T1 cells): decreased; proliferation (relative cell growth) [13]: inhibitory effects; Rac1 activity (emission ratio of YFP/CFP) (Rac1 GTPase [14]): decreased

From patent publication US20140364453A1, “SALUBRINAL-DRIVEN ATTENUATION OF MALIGNANT PHENOTYPES OF 4T1 BREAST CANCER CELLS” (Indiana University Research and Technology Corporation, priority 2013, published 2014)
